{"source": "patent US9957271B2", "about": "“Substituted bicyclic aza-heterocycles and analogues as sirtuin modulators” (GlaxoSmithKline, LLC, priority 2012, dated 2018)", "biological_target": "T1, SIRT1 (Homo sapiens, UniProt Q96EB6)", "T1 sequence (Q96EB6 1-747)": "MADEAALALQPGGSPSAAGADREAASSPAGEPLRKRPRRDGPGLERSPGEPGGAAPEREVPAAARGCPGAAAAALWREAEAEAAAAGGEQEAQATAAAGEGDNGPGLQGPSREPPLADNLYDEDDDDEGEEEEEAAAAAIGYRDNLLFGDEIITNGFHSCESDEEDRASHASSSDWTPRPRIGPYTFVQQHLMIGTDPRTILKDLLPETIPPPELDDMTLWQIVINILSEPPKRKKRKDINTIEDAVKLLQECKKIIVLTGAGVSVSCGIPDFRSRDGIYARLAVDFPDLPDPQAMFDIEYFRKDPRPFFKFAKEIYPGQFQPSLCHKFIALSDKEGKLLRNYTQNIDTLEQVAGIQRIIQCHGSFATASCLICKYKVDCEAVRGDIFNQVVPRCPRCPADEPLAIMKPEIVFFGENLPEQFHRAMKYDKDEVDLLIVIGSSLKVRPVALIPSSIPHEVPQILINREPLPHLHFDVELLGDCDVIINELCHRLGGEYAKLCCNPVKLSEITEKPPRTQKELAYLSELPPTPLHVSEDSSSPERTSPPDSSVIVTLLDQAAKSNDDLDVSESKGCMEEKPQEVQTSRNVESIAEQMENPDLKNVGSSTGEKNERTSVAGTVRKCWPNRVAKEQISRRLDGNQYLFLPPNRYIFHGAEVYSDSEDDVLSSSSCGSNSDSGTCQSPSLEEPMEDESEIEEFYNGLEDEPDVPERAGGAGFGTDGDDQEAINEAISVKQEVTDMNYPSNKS", "test": "TAMRA based mass spectrometry assay of SIRT1 activity", "format": "biochemical", "conditions": "TAMRA assay; for TAMRA EC1.5 (μM): concentration giving 150% activation of SIRT1; for Emax: percent maximum fold activation, read-out: TAMRA % Fold Act", "in_short": "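Recombinant N-terminal His-tagged human SIRT1 (10 nM, E. coli) incubated 25 min at 25 °C with 0.5 μM 5TMR-labelled p53-derived acetyl-peptide and 120 μM βNAD+ in Tris-acetate pH 8 buffer with DTT and 0.05% BSA, compound at varying concentrations. Stopped with formic acid; deacetylated peptide or OAADPR measured by mass spectrometry relative to DMSO controls.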", "data": [{"smiles": "O=C(Nc1cnc2ccc(-c3ccccc3Cl)nn12)c1nccs1", "note": "[Compound 294]", "values": [{"measurement": "TAMRA EC1.5 (μM)", "value": "B (EC1.5 1-25 μM)"}, {"measurement": "Emax", "value": "< 350", "unit": "%"}]}, {"smiles": "CC1(COc2cccc(NC(=O)c3cnc4ccc(-c5ccccc5C(F)(F)F)nn34)n2)COC1", "note": "[Compound 295]", "values": [{"measurement": "TAMRA EC1.5 (μM)", "value": "A (EC1.5<1 μM)"}, {"measurement": "Emax", "value": "≥ 350", "unit": "%"}]}, {"smiles": "O=C(Nc1cnc2ccc(-c3ccccc3F)nn12)c1cscn1", "note": "[Compound 298]", "values": [{"measurement": "TAMRA EC1.5 (μM)", "value": "B (EC1.5 1-25 μM)"}, {"measurement": "Emax", "value": "< 350", "unit": "%"}]}, {"smiles": "Cc1nc(C(=O)Nc2cnc3ccc(-c4ccccc4F)nn23)cs1", "note": "[Compound 299]", "values": [{"measurement": "TAMRA EC1.5 (μM)", "value": "B (EC1.5 1-25 μM)"}, {"measurement": "Emax", "value": "< 350", "unit": "%"}]}, {"smiles": "Cc1nc(C(=O)Nc2cnc3ccc(-c4ccccc4F)nn23)c(C)s1", "note": "[Compound 300]", "values": [{"measurement": "TAMRA EC1.5 (μM)", "value": "A (EC1.5<1 μM)"}, {"measurement": "Emax", "value": "< 350", "unit": "%"}]}, {"smiles": "O=C(Nc1cnc2ccc(-c3ccccc3F)nn12)c1cccc(N2CCOCC2)n1", "note": "[Compound 301]", "values": [{"measurement": "TAMRA EC1.5 (μM)", "value": "A (EC1.5<1 μM)"}, {"measurement": "Emax", "value": "≥ 350", "unit": "%"}]}, {"smiles": "O=C(Nc1cnc2ccc(-c3ccccc3F)nn12)c1cccc(N2CCC2)n1", "note": "[Compound 302]", "values": [{"measurement": "TAMRA EC1.5 (μM)", "value": "A (EC1.5<1 μM)"}, {"measurement": "Emax", "value": "≥ 350", "unit": "%"}]}, {"smiles": "Cc1cnc(C(=O)Nc2cnc3ccc(-c4ccccc4F)nn23)s1", "note": "[Compound 304]", "values": [{"measurement": "TAMRA EC1.5 (μM)", "value": "B (EC1.5 1-25 μM)"}, {"measurement": "Emax", "value": "< 350", "unit": "%"}]}, {"smiles": "Cc1cnc(C(=O)Nc2cnc3ccc(-c4ccccc4Cl)nn23)s1", "note": "[Compound 306]", "values": [{"measurement": "TAMRA EC1.5 (μM)", "value": "B (EC1.5 1-25 μM)"}, {"measurement": "Emax", "value": "≥ 350", "unit": "%"}]}, {"smiles": "O=C(Nc1cnc2ccc(-c3ccccc3Cl)nn12)c1cccc(N2CCOCC2)n1", "note": "[Compound 307]", "values": [{"measurement": "TAMRA EC1.5 (μM)", "value": "A (EC1.5<1 μM)"}, {"measurement": "Emax", "value": "≥ 350", "unit": "%"}]}, {"smiles": "Cc1cc(OCC(F)(F)F)nc(NC(=O)c2cnc3ccc(-c4ccccc4C(F)(F)F)nn23)n1", "note": "[Compound 310]", "values": [{"measurement": "TAMRA EC1.5 (μM)", "value": "A (EC1.5<1 μM)"}, {"measurement": "Emax", "value": "≥ 350", "unit": "%"}]}, {"smiles": "O=C(Nc1cnc2ccc(-c3ccccc3OC(F)(F)F)nn12)c1ccccn1", "note": "[Compound 312]", "values": [{"measurement": "TAMRA EC1.5 (μM)", "value": "A (EC1.5<1 μM)"}, {"measurement": "Emax", "value": "≥ 350", "unit": "%"}]}, {"smiles": "O=C(Nc1cnc2ccc(-c3ccccc3OC(F)(F)F)nn12)c1cnccn1", "note": "[Compound 313]", "values": [{"measurement": "TAMRA EC1.5 (μM)", "value": "A (EC1.5<1 μM)"}, {"measurement": "Emax", "value": "≥ 350", "unit": "%"}]}, {"smiles": "O=C(Nc1cnc2ccc(-c3ccccc3OC(F)(F)F)nn12)c1cscn1", "note": "[Compound 316]", "values": [{"measurement": "TAMRA EC1.5 (μM)", "value": "A (EC1.5<1 μM)"}, {"measurement": "Emax", "value": "≥ 350", "unit": "%"}]}, {"smiles": "Cc1nc(C(=O)Nc2cnc3ccc(-c4ccccc4OC(F)(F)F)nn23)c(C)s1", "note": "[Compound 318]", "values": [{"measurement": "TAMRA EC1.5 (μM)", "value": "A (EC1.5<1 μM)"}, {"measurement": "Emax", "value": "≥ 350", "unit": "%"}]}, {"smiles": "O=C(Nc1cnc2ccc(-c3ccccc3OC(F)(F)F)nn12)c1nccs1", "note": "[Compound 319]", "values": [{"measurement": "TAMRA EC1.5 (μM)", "value": "A (EC1.5<1 μM)"}, {"measurement": "Emax", "value": "≥ 350", "unit": "%"}]}, {"smiles": "O=C(Nc1cnc2ccc(-c3ccccc3OC(F)(F)F)nn12)c1cccc(N2CCC2)n1", "note": "[Compound 322]", "values": [{"measurement": "TAMRA EC1.5 (μM)", "value": "A (EC1.5<1 μM)"}, {"measurement": "Emax", "value": "≥ 350", "unit": "%"}]}, {"smiles": "O=C(Nc1ccccn1)c1c(O)nc2ccc(-c3ccccc3C(F)(F)F)nn12", "note": "[Compound 324]", "values": [{"measurement": "TAMRA EC1.5 (μM)", "value": "B (EC1.5 1-25 μM)"}, {"measurement": "Emax", "value": "< 350", "unit": "%"}]}, {"smiles": "O=C(Nc1ccnc(OCC(F)(F)F)n1)c1cnc2ccc(-c3ccccc3C(F)(F)F)nn12", "note": "[Compound 325]", "values": [{"measurement": "TAMRA EC1.5 (μM)", "value": "B (EC1.5 1-25 μM)"}, {"measurement": "Emax", "value": "< 350", "unit": "%"}]}, {"smiles": "N#Cc1ccccc1-c1ccc2ncc(NC(=O)c3ccccn3)n2n1", "note": "[Compound 328]", "values": [{"measurement": "TAMRA EC1.5 (μM)", "value": "A (EC1.5<1 μM)"}, {"measurement": "Emax", "value": "≥ 350", "unit": "%"}]}, {"smiles": "N#Cc1ccccc1-c1ccc2ncc(NC(=O)c3ccncn3)n2n1", "note": "[Compound 330]", "values": [{"measurement": "TAMRA EC1.5 (μM)", "value": "B (EC1.5 1-25 μM)"}, {"measurement": "Emax", "value": "< 350", "unit": "%"}]}, {"smiles": "N#Cc1ccccc1-c1ccc2ncc(NC(=O)c3ncccn3)n2n1", "note": "[Compound 331]", "values": [{"measurement": "TAMRA EC1.5 (μM)", "value": "B (EC1.5 1-25 μM)"}, {"measurement": "Emax", "value": "≥ 350", "unit": "%"}]}, {"smiles": "Cc1nc(C(=O)Nc2cnc3ccc(-c4ccccc4C#N)nn23)cs1", "note": "[Compound 333]", "values": [{"measurement": "TAMRA EC1.5 (μM)", "value": "B (EC1.5 1-25 μM)"}, {"measurement": "Emax", "value": "≥ 350", "unit": "%"}]}, {"smiles": "Cc1nc(C(=O)Nc2cnc3ccc(-c4ccccc4C#N)nn23)c(C)s1", "note": "[Compound 334]", "values": [{"measurement": "TAMRA EC1.5 (μM)", "value": "A (EC1.5<1 μM)"}, {"measurement": "Emax", "value": "≥ 350", "unit": "%"}]}, {"smiles": "Cc1cnc(C(=O)Nc2cnc3ccc(-c4ccccc4C#N)nn23)s1", "note": "[Compound 336]", "values": [{"measurement": "TAMRA EC1.5 (μM)", "value": "B (EC1.5 1-25 μM)"}, {"measurement": "Emax", "value": "≥ 350", "unit": "%"}]}]}
